One assay has as its system HEK293 T cells. Briefly: TIDE analysis of DSB repair at CFTR gene locus. The class given is cell-based, human. Here is the method:
The effect of Nu7441 treatment on HDR was also evaluated at the CFTR gene locus in HEK293 T cells. To do so cells were electroporated with RNP comprising Cas9 and a gRNA targeting the CFTR gene locus (SEQ ID NO: 18; sgRNA target sequence identified by SEQ ID NO: 19). 2×10^5 cells were edited with 1 μM Cas9 and 1.5 μM gRNA. The cells were transfected with a ssODN donor (SEQ ID NO: 42). Cells were edited with 100 μM ssODN. The ssODN contains homology arms spanning both sides of the DSB induced by the Cas9-guide and is designed to include 3 additional base pairs (GCA) into the CFTR gene to aid detection of HDR. Cells were also treated with 5 μM Nu7441. Gene correction was assessed by TIDE analysis. TIDE analysis uses a pair of PCR reactions and standard capillary sequencing runs to identify mutations induced at the site of a DSB (see e.g., Brinkman (2014) Nucleic Acids Res 42:e168). The type of mutation induced at the DSB was indicative of the pathway used to repair the DSB. Formation of an indel comprising either an insertion or a deletion of bases was considered due to NHEJ repair; a deletion of 2-3 base pairs was considered due to MMEJ repair; while an insertion of 3 base pairs was considered due to HDR repair. Shown in FIGS. 4A-4B are mutations introduced at the DSB for cells treated with Nu7441 (FIG. 4B) compared to a DMSO negative control (FIG. 4A). […] This reduction in NHEJ repair in the presence of Nu7441 was evaluated with an additional ssODN donor (SEQ ID NO: 41).

For assay [1], the system named is patient-derived PBMCs. Briefly: SCD gene correction by HDR and INDEL frequency by NGS in patient-derived PBMCs. It counts as cell-based, human. Here is the method:
It was further evaluated if editing of patient-derived PBMCs in the presence of i53 would yield high levels of correction of the HBB gene. […] The PBMCs were expanded in StemSpan SFEM II (1×)+StemSpan CC100 (1×)+Dexamethasone 1 μM+hEPO 2 IU/mL at 37° C. under normoxic conditions (20% O2 concentration). The cells were edited following five days of in vitro culture. […] On day 8, the cells were transferred to Phase 1 media, and differentiation to erythrocytes was performed through day 18 as described above. Efficiency of HDR at the HBB gene locus was evaluated on day 12 using the NGS assay described in Example 4. Also evaluated was the frequency of INDELs at the R02 cut-site as measured by NGS.

The test system of a further assay is hTERT RPE-1 cells. Briefly: HDR insertion of AAV-delivered GFP donor into AAVS1 locus (GFP fluorescence). It counts as cell-based, human. The following applies: AAV (DJ serotype) GFP donor and mRNA encoding i53, over AAV alone, FIG. 7. The procedure:
RPE1 cells were lipofected with RNP comprised of Cas9 protein and gRNA targeting the AAVS1 locus (target sequence shown in SEQ ID NO: 3; spacer sequence shown in SEQ ID NO: 4). Cells were edited with 1 μg Cas9 and 1 μg gRNA. Cells were infected with AAV containing homology donor DNA encoding GFP (DJ serotype) as well as mRNA encoding i53 (mRNA ORF shown in SEQ ID NO: 69). […] HDR efficiency was determined by measuring the level of GFP fluorescence in the cells following gene-editing.

Assay [2] concerns CD34-expressing LT-HSPCs derived from human patients with sickle cell disease. Briefly: SCD gene correction (E6V to E6) by HDR and INDEL frequency by NGS in patient-derived cells.
Description: The effect of i53 on HDR efficiency was evaluated in cells derived from patients with a sickle cell mutation in the HBB gene. Specifically, CD34-expressing LT-HSPCs derived from human patients with sickle cell disease were edited with SpCas9, R02 guide, and AAV.323 encoding a correction to the E6V mutation in the HBB gene.
Briefly, CD34-expressing LT-HSPCs were derived from plerixafor+GCSF-dual mobilized peripheral blood obtained from a human donor with sickle cell disease. The cells were seeded in Phase I media at a cell density of 2×10^5 cells/mL. Cells were cultured at 37° C. under normoxic conditions (i.e., oxygen 20%).
Editing of cells was performed following two days of in vitro culture. Briefly, 5×10^5 cells were electroporated with RNP containing 20 μg SpCas9 and 20 μg R02 sgRNA, AAV.323 at a dose of 10,000 MOI, and 1 μg mRNA encoding i53. The cells were incubated with AAV.323 for 1 hour prior to electroporation. The cells were edited by electroporation with R02+AAV.323+i53 mRNA and compared to control cells edited with R02 only, R02+AAV.323, or cells exposed to electroporation without RNP or AAV editing components (mock EP).
The efficiency of gene correction by HDR repair at the HBB gene locus was evaluated by NGS assay as described in Example 3. Frequency of INDELs at the R02 cut site was evaluated by NGS analysis. […]
In assay [3] the test system is patient-derived PBMCs. Briefly: Hemoglobin expression by HPLC in edited patient-derived PBMCs. It counts as cell-based, human. The following applies: FIG. 36. The procedure: (§1) Briefly, on day 18 post-editing, 1×10^6 cells were harvested, centrifuged, and washed with PBS. The cells were prepared for HPLC analysis. Hemoglobin variants were quantified in cell samples using reverse-phase HPLC chromatography and gradient elution. […] Thus, high levels of HDR achieved with i53 contribute to normalization of hemoglobin expression products.
Hemoglobin expression was measured by HPLC analysis for edited PBMCs as described above.

In assay [4] the test system is CD34-expressing LT-HSPCs derived from human patients with sickle cell disease. The assay can be described thus: Hemoglobin expression (HbF, HbA, HbS) by HPLC. It counts as cell-based. Here is the method: Hemoglobin expressed by edited cells that were differentiated to erythrocytes was assessed. Hemoglobin A (HbA) is composed of 2 alpha-globin and 2 beta-globin units and is the dominant hemoglobin in adult humans. In human carriers of the HBB E6V mutation, a high proportion of total hemoglobin is hemoglobin S (HbS), which is composed of 2 alpha-globin units and 2 beta-globin units with E6V.
as §1

Assay [5] has the same test system. Briefly: Erythrocyte functionality: cell-surface markers and enucleation by flow cytometry. It counts as cell-based. The following applies: day 18 post editing. Here is the method:
The ability of edited cells to differentiate to functional erythrocytes was assessed by determining expression of erythrocyte-associated cell surface markers and enucleation using flow cytometry on day 18 post editing.
Briefly, 4×10^5 cells were obtained, and half were stained for erythrocyte cell-surface markers and half were used for detection of enucleation. For staining cell-surface markers, the cells were incubated in PBS containing 1% human serum albumin (PBS-A) and an antibody cocktail of anti-CD233 (BRIC6-Band3)-FITC, anti-CD71-PE, anti-CD235a(GlyA)-PE/Cy7, and anti-CD49d (a4)-VioBlue. For detection of enucleation, 2 drops of NucRed nuclear staining reagent was added to 1 mL PBS-A, and 100 μL was added to plated cells. Following incubation, both cell samples were labeled with Sytox Blue solution (1:1000 dilution in PBS-A) for live/dead analysis. Samples were then assessed by flow cytometry.
For orientation: A flow cytometer gives signals particle by particle.

The mark [6] stands for this setting: either ssODN donor (SEQ ID NO: 41 or 42), FIG. 5.
Where [7] appears, read: compared to mock EP control cells.
[8] abbreviates: day 18 post-editing, compared to mock EP control cells, FIG. 34A.

Experimental findings from US20210008161A1, “METHODS AND COMPOSITIONS FOR IMPROVED HOMOLOGY DIRECTED REPAIR” (CRISPR THERAPEUTICS AG, priority 2019, published 2021) are described below.

Turning to `O=c1cc(N2CCOCC2)oc2c(-c3cccc4c3sc3ccccc34)cccc12` [Nu7441], the “HDR repair (+3 base pair insertion) at the DSB” value with HEK293 T cells (5 μM Nu7441, ssODN SEQ ID NO: 42, FIG. 4) was “much higher levels”. Besides, the “indel formation (NHEJ repair)” value in the assay with HEK293 T cells (5 μM Nu7441, ssODN SEQ ID NO: 42, vs DMSO negative control, FIG. 4) was “dramatically reduced”. In the assay with HEK293 T cells (setting [6]), the HDR repair result was “increase” and the “indel formation due to NHEJ repair” value was “decreased levels”.
With “i53: polypeptide inhibitor of 53BP1 (SEQ ID NO: 70), introduced as an mRNA-encoded protein (ORF SEQ ID NO: 69)”, in the assay on patient-derived PBMCs [1] (compared to control cells, FIG. 35B), the “frequency of INDELs” value is listed as “reduced”. For the same molecule, the “frequency of correction of the HBB gene by HDR repair” value with patient-derived PBMCs [1] (day 12, FIG. 35A) is “approximately 60%”. For the same molecule, the “level of HDR repair and frequency of INDELs in HBB, PBMCs vs CD34-expressing LT-HSPCs” value with patient-derived PBMCs [1] (edited in the presence of i53) was “comparable”. The HDR efficiency entry in the assay with hTERT RPE-1 cells is reported as “increase”. The “incorporation of the E6V→E6 gene correction” value in assay [2] (R02 RNP + AAV.323 + 1 μg i53 mRNA, FIG. 32A, 34B) is recorded as 66%. In addition, in assay [2] (compared to cells edited with RNP+AAV.323 alone, FIG. 32B), the “fold lower frequency of INDELs at the R02 cut site” value stood at 1.9 fold. For the same molecule, in the assay on patient-derived PBMCs [3] (setting [7]), the “expression of HbA” value was “increased” and the “expression of HbS” value was “significant reduction”. The “ratio of HbS to HbA, PBMCs vs CD34-expressing LT-HSPCs” value in the assay on patient-derived PBMCs [3] (edited in the presence of i53) is reported as “comparable”. In addition, in assay [4] (setting [8]), the HbA levels entry is “increased” and the HbS levels result is “dramatically reduced”. In assay [4] (relative to mock EP control cells, FIG. 34B), the “decrease in HbS levels” value is recorded as 90%. Besides, the “cell population having enucleation” value in assay [5] (comparable to mock EP control cells) is reported as above 30%. In assay [5] (similar to mock EP control cells), the “cell population CD71−GlyA+ erythrocytes” value was above 30%.
